Values of other authors in patent US9328386B2, “Markers for susceptibility to an inhibitor of an Src-family kinase” (Evotec (München) GmbH, priority 2011, dated 2016).

Legend:
[1] = system: SFK; settings: cited from earlier work
[2] = target: CSK (Homo sapiens, UniProt P41240); settings: cited from earlier work
[3] = target: MET (Homo sapiens, UniProt P08581); settings: cited from earlier work
[4] = target: SRC (Homo sapiens, UniProt P12931); settings: cited from earlier work
[5] = system: VEGFR; settings: cited from earlier work
[6] = target: LCK (Homo sapiens, UniProt P06239); settings: cited from earlier work
[7] = target: EGFR (Homo sapiens, UniProt P00533); settings: cited from earlier work
[8] = target: YES (Homo sapiens, UniProt P07947); settings: unit not given; cited from earlier work
[9] = target: FGFR1 (Homo sapiens, UniProt P11362); settings: cited from earlier work
FGFR1, sequence (P11362 22-822, species assumed): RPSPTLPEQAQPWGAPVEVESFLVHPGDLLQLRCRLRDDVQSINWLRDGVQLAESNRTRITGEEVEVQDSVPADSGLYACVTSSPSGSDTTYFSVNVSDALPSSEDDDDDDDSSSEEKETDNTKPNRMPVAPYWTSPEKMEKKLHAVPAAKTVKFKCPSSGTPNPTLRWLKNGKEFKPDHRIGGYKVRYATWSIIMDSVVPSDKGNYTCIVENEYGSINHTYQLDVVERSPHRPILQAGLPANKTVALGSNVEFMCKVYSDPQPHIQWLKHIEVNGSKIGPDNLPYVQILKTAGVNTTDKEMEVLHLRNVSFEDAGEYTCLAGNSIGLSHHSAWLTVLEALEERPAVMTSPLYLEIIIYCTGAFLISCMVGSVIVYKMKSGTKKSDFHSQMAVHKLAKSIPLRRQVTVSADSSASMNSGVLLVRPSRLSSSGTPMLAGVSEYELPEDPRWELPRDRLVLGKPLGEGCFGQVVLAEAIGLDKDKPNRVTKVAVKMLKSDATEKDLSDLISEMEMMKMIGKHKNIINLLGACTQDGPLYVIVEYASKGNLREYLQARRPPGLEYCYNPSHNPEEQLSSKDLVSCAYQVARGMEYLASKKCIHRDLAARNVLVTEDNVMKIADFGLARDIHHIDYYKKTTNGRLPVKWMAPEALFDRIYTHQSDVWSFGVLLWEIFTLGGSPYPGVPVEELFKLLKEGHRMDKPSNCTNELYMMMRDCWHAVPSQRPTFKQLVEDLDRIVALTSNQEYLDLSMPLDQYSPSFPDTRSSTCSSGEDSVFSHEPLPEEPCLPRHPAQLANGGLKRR

CSK, sequence (P41240 whole entry, species assumed): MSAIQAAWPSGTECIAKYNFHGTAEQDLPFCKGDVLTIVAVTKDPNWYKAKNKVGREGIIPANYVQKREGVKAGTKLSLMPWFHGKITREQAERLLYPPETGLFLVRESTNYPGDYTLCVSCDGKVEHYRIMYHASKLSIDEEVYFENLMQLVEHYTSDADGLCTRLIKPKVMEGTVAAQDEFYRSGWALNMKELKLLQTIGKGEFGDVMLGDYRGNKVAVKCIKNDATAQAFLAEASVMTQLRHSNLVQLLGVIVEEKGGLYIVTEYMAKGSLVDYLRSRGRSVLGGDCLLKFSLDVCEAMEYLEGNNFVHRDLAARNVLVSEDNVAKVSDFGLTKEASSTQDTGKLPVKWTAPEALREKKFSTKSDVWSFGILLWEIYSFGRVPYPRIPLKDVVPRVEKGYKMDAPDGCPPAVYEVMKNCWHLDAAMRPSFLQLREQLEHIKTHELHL
SRC, sequence (P12931 whole entry, species assumed): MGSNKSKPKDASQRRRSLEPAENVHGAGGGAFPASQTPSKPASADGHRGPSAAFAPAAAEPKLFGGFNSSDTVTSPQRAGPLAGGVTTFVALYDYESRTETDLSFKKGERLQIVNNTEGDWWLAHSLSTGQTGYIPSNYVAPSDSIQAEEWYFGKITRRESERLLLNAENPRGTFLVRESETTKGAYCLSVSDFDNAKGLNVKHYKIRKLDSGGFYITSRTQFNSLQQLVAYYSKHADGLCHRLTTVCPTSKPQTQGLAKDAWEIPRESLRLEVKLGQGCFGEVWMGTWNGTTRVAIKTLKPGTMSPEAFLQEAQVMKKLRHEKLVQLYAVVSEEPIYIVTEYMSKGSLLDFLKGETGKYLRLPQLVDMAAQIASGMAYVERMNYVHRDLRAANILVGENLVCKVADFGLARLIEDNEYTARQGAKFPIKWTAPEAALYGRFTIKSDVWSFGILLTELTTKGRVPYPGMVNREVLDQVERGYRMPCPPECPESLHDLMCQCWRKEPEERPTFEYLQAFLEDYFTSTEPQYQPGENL
EGFR, sequence (P00533 25-1210, species assumed): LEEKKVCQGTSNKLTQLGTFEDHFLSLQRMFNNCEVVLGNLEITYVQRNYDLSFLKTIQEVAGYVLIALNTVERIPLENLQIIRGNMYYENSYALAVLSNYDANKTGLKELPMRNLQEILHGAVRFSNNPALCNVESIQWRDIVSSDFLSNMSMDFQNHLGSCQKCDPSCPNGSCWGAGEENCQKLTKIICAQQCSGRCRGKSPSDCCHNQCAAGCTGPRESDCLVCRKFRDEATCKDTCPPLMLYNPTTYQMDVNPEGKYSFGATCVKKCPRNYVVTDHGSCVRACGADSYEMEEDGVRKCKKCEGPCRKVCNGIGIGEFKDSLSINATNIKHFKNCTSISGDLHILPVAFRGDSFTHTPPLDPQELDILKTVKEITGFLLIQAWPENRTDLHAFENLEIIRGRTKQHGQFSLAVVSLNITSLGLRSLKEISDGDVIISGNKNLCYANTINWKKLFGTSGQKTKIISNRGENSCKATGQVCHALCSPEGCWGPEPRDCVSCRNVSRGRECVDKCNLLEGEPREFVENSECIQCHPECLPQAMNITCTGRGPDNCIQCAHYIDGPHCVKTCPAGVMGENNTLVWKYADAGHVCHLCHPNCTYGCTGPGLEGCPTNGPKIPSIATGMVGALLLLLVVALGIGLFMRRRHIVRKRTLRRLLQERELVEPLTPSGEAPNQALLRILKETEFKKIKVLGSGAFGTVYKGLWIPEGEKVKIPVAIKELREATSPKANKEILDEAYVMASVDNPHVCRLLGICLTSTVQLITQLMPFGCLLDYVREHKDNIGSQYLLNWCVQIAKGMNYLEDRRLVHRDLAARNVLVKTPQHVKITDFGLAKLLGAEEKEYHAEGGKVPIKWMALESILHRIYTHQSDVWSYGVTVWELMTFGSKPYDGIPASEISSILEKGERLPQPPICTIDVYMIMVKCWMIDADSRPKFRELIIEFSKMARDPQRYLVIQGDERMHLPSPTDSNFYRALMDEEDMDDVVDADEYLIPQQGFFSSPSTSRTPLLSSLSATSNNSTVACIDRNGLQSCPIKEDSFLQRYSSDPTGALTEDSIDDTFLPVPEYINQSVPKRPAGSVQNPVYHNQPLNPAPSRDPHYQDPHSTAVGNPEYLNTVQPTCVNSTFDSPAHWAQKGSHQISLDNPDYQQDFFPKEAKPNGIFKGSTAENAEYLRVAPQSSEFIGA
YES, sequence (P07947 whole entry, species assumed): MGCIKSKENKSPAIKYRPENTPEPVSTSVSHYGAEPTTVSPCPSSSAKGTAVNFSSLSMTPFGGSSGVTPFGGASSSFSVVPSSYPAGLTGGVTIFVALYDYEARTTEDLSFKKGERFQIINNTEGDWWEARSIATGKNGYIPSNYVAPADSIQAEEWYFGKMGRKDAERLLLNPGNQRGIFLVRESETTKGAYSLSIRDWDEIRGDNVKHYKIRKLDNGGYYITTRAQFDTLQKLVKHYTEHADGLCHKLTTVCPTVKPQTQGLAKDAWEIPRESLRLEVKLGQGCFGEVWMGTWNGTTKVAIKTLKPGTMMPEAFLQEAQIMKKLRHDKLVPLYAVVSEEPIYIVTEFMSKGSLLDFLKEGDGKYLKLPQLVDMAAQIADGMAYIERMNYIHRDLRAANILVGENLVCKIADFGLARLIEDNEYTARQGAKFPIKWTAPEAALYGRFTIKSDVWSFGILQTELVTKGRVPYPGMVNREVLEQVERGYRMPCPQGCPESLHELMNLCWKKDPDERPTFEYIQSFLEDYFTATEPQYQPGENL
MET, sequence (P08581 25-1390): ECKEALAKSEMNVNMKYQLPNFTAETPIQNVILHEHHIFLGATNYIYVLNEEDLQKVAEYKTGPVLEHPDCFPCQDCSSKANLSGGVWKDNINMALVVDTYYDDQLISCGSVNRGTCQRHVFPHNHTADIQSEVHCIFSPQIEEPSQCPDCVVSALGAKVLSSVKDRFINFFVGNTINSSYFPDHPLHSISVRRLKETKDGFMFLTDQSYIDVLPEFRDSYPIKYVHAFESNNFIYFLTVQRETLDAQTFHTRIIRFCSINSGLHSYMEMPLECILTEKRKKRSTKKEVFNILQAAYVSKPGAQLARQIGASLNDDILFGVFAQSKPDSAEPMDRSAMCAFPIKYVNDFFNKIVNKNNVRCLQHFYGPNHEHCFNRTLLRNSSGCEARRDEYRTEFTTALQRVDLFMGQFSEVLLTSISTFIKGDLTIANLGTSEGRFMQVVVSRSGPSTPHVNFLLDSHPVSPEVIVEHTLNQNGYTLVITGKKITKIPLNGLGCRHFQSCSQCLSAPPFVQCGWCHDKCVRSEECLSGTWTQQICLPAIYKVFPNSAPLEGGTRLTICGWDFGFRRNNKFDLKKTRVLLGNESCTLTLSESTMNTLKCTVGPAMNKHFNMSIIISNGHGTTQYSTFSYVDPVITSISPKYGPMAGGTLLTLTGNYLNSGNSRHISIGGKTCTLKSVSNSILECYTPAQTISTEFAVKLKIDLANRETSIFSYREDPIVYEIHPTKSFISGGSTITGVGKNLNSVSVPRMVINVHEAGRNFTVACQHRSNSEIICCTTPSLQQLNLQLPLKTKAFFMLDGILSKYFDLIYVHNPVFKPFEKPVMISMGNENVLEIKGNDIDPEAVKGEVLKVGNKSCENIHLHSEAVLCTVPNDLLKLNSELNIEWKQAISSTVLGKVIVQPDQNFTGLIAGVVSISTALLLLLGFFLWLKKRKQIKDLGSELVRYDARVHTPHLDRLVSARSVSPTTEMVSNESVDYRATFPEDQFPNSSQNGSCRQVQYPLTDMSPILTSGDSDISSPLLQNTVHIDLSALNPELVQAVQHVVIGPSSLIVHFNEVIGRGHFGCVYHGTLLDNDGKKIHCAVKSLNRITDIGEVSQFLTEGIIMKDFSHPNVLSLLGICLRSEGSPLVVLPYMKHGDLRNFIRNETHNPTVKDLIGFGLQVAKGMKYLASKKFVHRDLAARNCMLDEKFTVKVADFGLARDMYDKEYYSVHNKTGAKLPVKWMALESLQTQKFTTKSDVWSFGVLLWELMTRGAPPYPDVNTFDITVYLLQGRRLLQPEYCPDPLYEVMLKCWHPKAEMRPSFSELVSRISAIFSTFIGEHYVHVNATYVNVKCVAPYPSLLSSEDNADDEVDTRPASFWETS

| SMILES | Affinities (basic outline) [1] | Affinities (basic outline) [2] | Affinities (basic outline) [3] | Affinities (basic outline) [4] | Affinities (basic outline) [5] | Affinities (basic outline) [6] | Affinities (basic outline) [7] | Affinities (basic outline) [8] | Affinities (basic outline) [9] |
| --- | --- | --- | --- | --- | --- | --- | --- | --- | --- |
| CN(C)S(=O)(=O)c1ccc2c(c1)/C(=C/c1cc3c([nH]1)CCCC3)C(=O)N2 [SU6656, (2-oxo-3-(4,5,6,7-tetrahydro-1H-indol-2-ylmethylene)-2,3-dihydro-1H-indole-5-sulfonic acid dimethylamide)] | 0.02 to 6.88 nM | 0.007 µM | 3 nM | – | – | – | – | – | – |
| COc1ccc(Cl)c(Nc2ncnc3cc(OCC4CCN(C)CC4)c(OC)cc23)c1 [M475271, 4-quinazolinamine, N-(2-chloro-5-methoxyphenyl)-6-methoxy-7-[(1-methyl-4-piperidinyl)methoxy]-(9Cl)] | – | 7.6 µM | – | 25 nM | 500 nM | 200 nM | 600 nM | 10 | 20 µM |
